From US9284283B2, “Macrocyclic compounds for modulating IL-17” (ENSEMBLE THERAPEUTICS CORPORATION, priority 2012, dated 2016)

Legend:
[1] = target: T1, recombinant human IL17a (binding to its receptor IL17R) (Homo sapiens, UniProt Q16552); assay: IL-17 competition ELISA I (IL17a coated, IL17R/Fc binding)
T1 construct: purchased R&D Systems 317-ILB (IL17a); 177-IR (IL17R/Fc)
T1 sequence (Q16552 20-155 limits assumed): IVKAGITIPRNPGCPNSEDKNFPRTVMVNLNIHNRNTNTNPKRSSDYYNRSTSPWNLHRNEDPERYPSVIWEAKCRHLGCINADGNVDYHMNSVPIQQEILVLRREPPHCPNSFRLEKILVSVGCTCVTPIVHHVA
Outline: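 Plates coated with 20 nM recombinant human IL17a received compound dilutions and 12 nM IL17R/Fc (final) for 30 min at room temperature. Bound receptor was detected with HRP anti-human Fc and TMB, read at 450 nm. IC50 came from a 4-parameter logistic fit between no-competitor and blank controls.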

[2] = tested on: IL-17A induced secretion of IL-6 in primary human RASF cells; assay: Inhibition of IL17A induced secretion of IL6 in human rheumatoid arthritis synovial fibroblast (RASF) cells; format: cell-based; conditions: Homo sapiens, Fibroblast
Experimental: This assay was used to determine the extent of inhibition of IL-17A induced secretion of IL-6 in primary human rheumatoid synovial fibroblast (RASF) cells by compounds of the invention. IL-17A is known to stimulate IL-6 production in RASF cells.
Low passage (passage 2-8) Primary human RASF cells (Asterand) were maintained in maintenance medium. Cells were detached from flasks by tryptic digestion and the cell density of the suspension determined. To each well of a 96 well culture plate was added 100 μL of seeding medium containing 50,000 cells/mL and the plate incubated overnight in a humidified 37° C., 5% CO2 incubator. The medium was replaced with fresh assay medium and cells were incubated for additional 5 hours in a humidified 37° C., 5% CO2 incubator prior to stimulation with recombinant human IL-17A (“rhIL-17A”). Prior to addition to cells, rhIL-17A (30 ng/mL) in assay medium was incubated with either DMSO alone, compounds, or anti-IL17 receptor antibody (3 μg/mL) for 1 hour at 37° C. The final concentration of DMSO in all samples was 0.25%. The final concentration of compounds varied from 0.03 μM to 25 μM.
Immediately before stimulation, cells were washed once with fresh assay medium. Then, 100 μL of the test samples was added in triplicate wells and the plates incubated for 20 hours in a humidified 37° C., 5% CO2 incubator. The assay medium from each well was collected and the IL-6 concentration in cell culture supernatants was determined by ELISA either immediately or after storage at −20° C.
A water-soluble tetrazolium salt (WST1) viability assay was immediately performed on the cells after the conditioned medium was collected using a WST1 reagent purchased from Roche. The concentration of IL-6 obtained from ELISA was normalized by the WST1 data.

[3] = target: T2, biotinylated human IL-17 (binding to IL17R/Fc) (Homo sapiens, UniProt Q16552); assay: IL-17 competition ELISA II (captured IL17R/Fc, biotinylated IL-17)
T2 construct: purchased R&D Systems 317-ILB (IL-17, biotinylated); 177-IR (IL17R/Fc)
T2 sequence (Q16552 20-155 limits assumed): T1 sequence (Q16552 20-155 limits assumed)
Outline: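 Competition read-out: absorbance at 450 nm after streptavidin-HRP/TMB detection, fitted to a 4-parameter logistic model bounded by no-competitor and blank wells to give IC50. Compound was serially diluted 5-fold from 1 μM alongside 20 nM (stock) biotinylated IL-17 on IL17R/Fc (10 nM) captured via goat anti-human IgG, 30 min at room temperature.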

Row | Structure (SMILES) | IC50 [1] [nM] | IC50 [2] [nM] | IC50 [3] [nM]
1 | O=C1CNC(=O)[C@@H](Cc2ccc(NC(=O)[C@H](Cc3ccccc3Cl)NC(=O)Cc3ccc(CO)cc3)cc2)NC(=O)CC2(CCCC2)CC(=O)NCCCCCN1 [Compound 218] | < 100 | < 100 | < 100
2 | O=C1CNC(=O)[C@@H](Cc2ccc(NC(=O)[C@H](Cc3ccccc3Cl)NC(=O)CC3CCCCC3)cc2)NC(=O)CC2(CCCC2)CC(=O)NCCCCCN1 [Compound 236] | < 100 | 1000 to 10000 | –
3 | O=C1CNC(=O)[C@@H](Cc2ccc(NC(=O)[C@H](CC3CCC3)NC(=O)Cc3ccccc3)cc2)NC(=O)CC2(CCCC2)CC(=O)NCCCCCN1 [Compound 246] | < 100 | > 10000 | < 100
4 | CC1(C)CC(=O)NCCCCCNC(=O)CNC(=O)[C@@H](Cc2ccc(NC(=O)[C@@H](NC(=O)Cc3ccccc3)C3CCCCC3)cc2)NC(=O)C1 [Compound 251] | 100 to 1000 | 1000 to 10000 | –
5 | CC1(C)CC(=O)NCCCCCNC(=O)CNC(=O)[C@@H](Cc2ccc(NC(=O)[C@@H](NC(=O)Cc3ccc(O)cc3)C3CCCCC3)cc2)NC(=O)C1 [Compound 253] | 100 to 1000 | 1000 to 10000 | –
6 | CC1(C)CC(=O)NCCCCCNC(=O)CNC(=O)[C@@H](Cc2ccc(NC(=O)[C@@H](NC(=O)c3cccnc3)C3CCCCC3)cc2)NC(=O)C1 [Compound 254] | 1000 to 10000 | > 10000 | –
7 | CN1CCNC(=O)CNC(=O)[C@@H](Cc2ccc(NC(=O)[C@H](Cc3ccccc3Cl)NC(=O)Cc3ccc(O)cc3)cc2)NC(=O)CC2(CCCC2)CC(=O)NCC1 [Compound 260] | < 100 | 1000 to 10000 | –
8 | O=C1CC2(CCCC2)CC(=O)N[C@H](Cc2ccc(NC(=O)[C@H](Cc3ccccc3Cl)NC(=O)Cc3ccccc3)cc2)C(=O)N[C@H](Cc2ccccc2)C(=O)NCCCCCN1 [Compound 261] | < 100 | 1000 to 10000 | –
9 | O=C1CC2(CCCC2)CC(=O)N[C@H](Cc2ccc(NC(=O)[C@H](Cc3ccccc3Cl)NC(=O)Cc3ccc(O)cc3)cc2)C(=O)NCCCCCCCCN1 [Compound 263] | < 100 | 1000 to 10000 | –
10 | CC(=O)N[C@@H](Cc1ccccc1Cl)C(=O)Nc1ccc(C[C@H]2NC(=O)CC3(CCCC3)CC(=O)N[C@H](C(=O)O)CCCCNC(=O)CNC2=O)cc1 [Compound 264] | < 100 | 100 to 1000 | < 100
11 | O=C1CNC(=O)[C@@H](Cc2ccc(NC(=O)[C@H](Cc3ccccc3Cl)NC(=O)c3cccnc3)cc2)NC(=O)CC2(CCCC2)CC(=O)N[C@H](C(=O)O)CCCCN1 [Compound 266] | < 100 | 100 to 1000 | < 100
12 | CNC(=O)N[C@@H](Cc1ccccc1Cl)C(=O)Nc1ccc(C[C@H]2NC(=O)CC3(CCCC3)CC(=O)NCCCCCNC(=O)CNC2=O)cc1 [Compound 273] | 100 to 1000 | 1000 to 10000 | < 100
13 | CN(C)C(=O)N[C@@H](Cc1ccccc1Cl)C(=O)Nc1ccc(C[C@H]2NC(=O)CC3(CCCC3)CC(=O)NCCCCCNC(=O)CNC2=O)cc1 [Compound 274] | < 100 | 100 to 1000 | < 100
14 | C[C@H]1NC(=O)[C@@H](Cc2ccc(NC(=O)[C@H](Cc3ccccc3Cl)NC(=O)Cc3ccccc3)cc2)NC(=O)CC2(CCCC2)CC(=O)NCCCCCNC1=O [Compound 288] | < 100 | < 100 | < 100
15 | O=C1CNC(=O)[C@@H](Cc2ccc(NC(=O)[C@H](CC3CCCCC3)NC(=O)Cc3ccccc3)cc2)NC(=O)CC2(CCCC2)CC(=O)NCCCCCN1 [Compound 293] | 100 to 1000 | 1000 to 10000 | < 100
16 | O=C1CNC(=O)[C@@H](Cc2ccc(NC(=O)[C@H](Cc3ccccc3Cl)NC(=O)NCc3ccccc3)cc2)NC(=O)CC2(CCCC2)CC(=O)NCCCCCN1 [Compound 302] | < 100 | 100 to 1000 | < 100

Row | Structure (SMILES) | IC50 [1] [nM] | IC50 [2] [nM] | IC50 [3] [nM]
17 | O=C1CNC(=O)[C@@H](Cc2ccc(NC(=O)[C@H](Cc3ccccc3Cl)NC(=O)Cc3ccc(F)cc3)cc2)NC(=O)CC2(CCCC2)CC(=O)NCCCCCN1 [Compound 305] | < 100 | 100 to 1000 | < 100
18 | O=C1CNC(=O)[C@@H](Cc2ccc(NC(=O)[C@@H](NC(=O)Cc3ccccc3)C3CCCCC3)cc2)NC(=O)CC2(CCCC2)CC(=O)N[C@H](C(=O)O)CCCCN1 [Compound 316] | < 100 | 100 to 1000 | < 100
19 | CN1CCCCCNC(=O)CNC(=O)[C@@H](Cc2ccc(NC(=O)[C@@H](NC(=O)Cc3ccccc3)C3CCCCC3)cc2)NC(=O)CC2(CCCC2)CC1=O [Compound 332] | 100 to 1000 | 1000 to 10000 | < 100
20 | O=C1CC2(CCCC2)CC(=O)N[C@H](Cc2ccc(NC(=O)[C@@H](NC(=O)Cc3ccc(CO)cc3)C3CCCCC3)cc2)C(=O)N[C@H](Cc2ccccc2)C(=O)NCCCCCN1 [Compound 336] | 100 to 1000 | 100 to 1000 | < 100
21 | O=C1CNC(=O)[C@@H](Cc2ccc(NC(=O)[C@H](Cc3ccccc3Cl)NC(=O)Cc3ccccc3)cc2)NC(=O)CC2(CCCC2)CC(=O)NCCNCCN1 [Compound 338] | 100 to 1000 | > 10000 | < 100
22 | O=C1CC2(CCCC2)CC(=O)N[C@H](Cc2ccc(NC(=O)[C@H](Cc3ccccc3Cl)NC(=O)Cc3ccccc3)cc2)C(=O)NCC(=O)N[C@H](C(=O)O)CCCCN1 [Compound 339] | < 100 | 100 to 1000 | < 100
23 | O=C1CC2(CCCC2)CC(=O)N[C@H](Cc2ccc(NC(=O)[C@H](Cc3ccccc3Cl)NC(=O)Cc3ccccc3)cc2)C(=O)N[C@H](CO)C(=O)NCCCCCN1 [Compound 340] | < 100 | 100 to 1000 | < 100
24 | NC(=O)CC[C@H]1NC(=O)[C@@H](Cc2ccc(NC(=O)[C@H](Cc3ccccc3Cl)NC(=O)Cc3ccccc3)cc2)NC(=O)CC2(CCCC2)CC(=O)NCCCCCNC1=O [Compound 341] | < 100 | < 100 | < 100
25 | C[C@H]1NC(=O)[C@@H](Cc2ccc(NC(=O)[C@@H](NC(=O)Cc3ccccc3)C3CCCCC3)cc2)NC(=O)CC2(CCCC2)CC(=O)NCCCCCNC1=O [Compound 342] | 100 to 1000 | 100 to 1000 | < 100
26 | COC(=O)[C@@H]1CCCCNC(=O)CNC(=O)[C@@H](Cc2ccc(NC(=O)[C@@H](NC(=O)c3cccnc3)C3CCCCC3)cc2)NC(=O)CC2(CCCC2)CC(=O)N1 [Compound 352] | 1000 to 10000 | > 10000 | –
27 | C[C@H]1NC(=O)[C@@H](Cc2ccc(NC(=O)[C@H](Cc3ccccc3Cl)NC(=O)c3cccnc3)cc2)NC(=O)CC2(CCCC2)CC(=O)NCCCCCNC1=O [Compound 353] | 100 to 1000 | 1000 to 10000 | < 100
28 | O=C1CC2(CCCC2)CC(=O)N[C@H](Cc2ccc(NC(=O)[C@H](Cc3ccccc3Cl)NC(=O)Cc3ccc(CO)cc3)cc2)C(=O)N[C@H](Cc2cccnc2)C(=O)NCCCC[C@@H](C(=O)O)N1 [Compound 657] | – | < 100 | < 100
29 | O=C1CC2(CCCC2)CC(=O)N[C@H](Cc2ccc(NC(=O)[C@H](Cc3ccccc3Cl)NC(=O)Cc3ccc(CO)cc3)cc2)C(=O)N[C@H](Cc2cscn2)C(=O)NCCCC[C@@H](C(=O)O)N1 [Compound 658] | – | < 100 | < 100
30 | CC(C)C[C@H]1NC(=O)[C@@H](Cc2ccc(NC(=O)[C@H](Cc3ccccc3Cl)NC(=O)Cc3ccc(CO)cc3)cc2)NC(=O)CC2(CCCC2)CC(=O)N[C@H](C(=O)O)CCCCNC1=O [Compound 660] | – | < 100 | < 100
31 | O=C1CC2(CCCC2)CC(=O)N[C@H](Cc2ccc(NC(=O)[C@H](Cc3ccccc3Cl)NC(=O)Cc3ccc(CO)cc3)cc2)C(=O)N[C@H](Cc2c[nH]c3ccccc23)C(=O)NCCCC[C@@H](C(=O)O)N1 [Compound 661] | – | < 100 | < 100
32 | O=C1CC2(CCCC2)CC(=O)N[C@H](Cc2ccc(NC(=O)[C@H](Cc3ccccc3Cl)NC(=O)Cc3ccc(CO)cc3)cc2)C(=O)N[C@H](Cc2c[nH]cn2)C(=O)NCCCC[C@@H](C(=O)O)N1 [Compound 662] | – | < 100 | < 100
